Activity calls are given as the source filed them. The calls are words filed in the database; no cut-off is given here.
Key:
[1] = Genotoxicity in Salmonella typhimurium in presence of metabolic activation by Ames test; format: toxicity; conditions: salmonella enterica subsp. enterica serovar typhimurium
[2] = Toxicity in dog assessed as decreased cortical lymphoid cellularity in thymus at 75 mg/kg/day, po QD for 4 days by microscopic analysis; format: organism-based, Canis lupus familiaris; conditions: in vivo, 96 h, time 4 day
[3] = Toxicity in dog assessed as clinical pathological changes by measuring increase in red cell mass at 75 mg/kg/day, po QD for 4 days; format: organism-based, Canis lupus familiaris; conditions: in vivo, 96 h, time 4 day
[4] = Toxicity in C57BL/6N mouse assessed as seizures administered orally for 10 mins prior to unilateral eccentric contraction and QD for 16 days thereafter; conditions: in vivo, po, 384 h, time 16 day
[5] = Ratio of drug level in muscle to plasma in C57BL/6N mouse administered orally for 10 mins prior to unilateral eccentric contraction and QD for 16 days thereafter; format: toxicity, cell-free, Muscle tissue/plasma; conditions: route po, time 16 day
[6] = AUC in Wistar Han rat at 10 mg/kg/day, po QD for 7 days; format: ADME, organism-based; design: dose 10 mg/kg/day, time 7 day, route po; conditions: in vivo
[7] = tested on: Mus musculus; test: Anti-inflammatory activity against mdx mouse assessed as inhibition of muscle function loss by measuring functional recovery of injured limb muscles at 0.1 to 10 mg/kg, po administered 10 mins prior to unilateral eccentric contraction and QD for 43 days thereafter; design: scale not given: the % may be the effect or the level left; conditions: dose 0.1-10 mg/kg, time 43 day
[8] = molecular target: T1, Hematopoietic prostaglandin D synthase (Rattus norvegicus, UniProt O35543); test: Inhibition of H-PGDS in rat RBL cells assessed as reduction in A23187-induced PGD2 production pretreated for 30 mins followed by A23187 addition for 30 mins by RapidFire Mass spectrometry; format: cell-based
T1 sequence (O35543 whole entry): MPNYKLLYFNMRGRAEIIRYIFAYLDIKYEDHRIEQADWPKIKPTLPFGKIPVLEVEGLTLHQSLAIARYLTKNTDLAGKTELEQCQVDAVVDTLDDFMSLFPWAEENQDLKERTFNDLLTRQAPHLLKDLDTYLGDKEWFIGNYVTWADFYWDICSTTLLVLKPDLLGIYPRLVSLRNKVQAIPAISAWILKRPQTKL

[9] = tested on: Mus musculus; test: Anti-inflammatory activity against C57BL6/N mouse assessed as reduction in LPS-induced PGD2 level in plasma administered orally with compound and 1 hr later treated with LPS and measured after 30 mins by LC-MS/MS analysis; format: functional; conditions: route po, time 1.5 hrs
[10] = Toxicity in compound 48/80-treated C57BL/6J mouse assessed as seizures administered orally with compound and 1 hr later treated with compound 48/80 for 7 mins; conditions: in vivo, po, 1.117 h, time 67 min
[11] = molecular target: Bile salt export pump (Homo sapiens, UniProt O95342); test: Inhibition of BSEP (unknown origin) upto 10000 nM; conditions: 10 µM
[12] = Toxicity in dog assessed as cytoplasmic alteration in zona fasciculata in adrenal gland at 75 mg/kg/day, po QD for 4 days by microscopic analysis; format: organism-based, Canis lupus familiaris; conditions: in vivo, 96 h, time 4 day
[13] = Toxicity in dog assessed as hemorrhage of zona fasciculata in adrenal gland at 75 mg/kg/day, po QD for 4 days by microscopic analysis; format: organism-based, Canis lupus familiaris; conditions: in vivo, 96 h, time 4 day
[14] = tested on: Mus musculus; test: Anti-inflammatory activity against mdx mouse assessed as inhibition of muscle function loss by measuring functional recovery of injured limb muscles administered orally 10 mins prior to unilateral eccentric contraction and QD for 43 days thereafter; conditions: 1032 h, route po, time 43 day
[15] = molecular target: Acetylcholinesterase (Homo sapiens) (UniProt P22303); conditions: dose <= 10000.0 nM
Description: Inhibition of AChE (unknown origin) upto 10000 nM

[16] = tested on: Mus musculus; test: Anti-inflammatory activity against C57BL6/N mouse assessed as EC50 required for reduction in LPS-induced PGD2 level in skeletal muscle administered orally with compound and 1 hr later treated with LPS and measured after 30 mins by LC-MS/MS analysis; format: functional, organism-based, C57BL/6N
[17] = Toxicity in Wistar Han rat assessed as proximal tubular vacuolation and hyaline cast formation in kidney at 100 mg/kg/day, po administered QD for 7 days by microscopic analysis; format: organism-based; conditions: in vivo, 168 h, time 7 day
[18] = molecular target: Beta-2 adrenergic receptor (Homo sapiens) (UniProt P07550); conditions: dose <= 10000.0 nM
Description: Inhibition of beta2 adrenergic receptor (unknown origin) upto 10000 nM

[19] = molecular target: Sodium-dependent noradrenaline transporter (Homo sapiens) (UniProt P23975); conditions: dose <= 10000.0 nM
Description: Inhibition of NET (unknown origin) upto 10000 nM

[20] = molecular target: Albumin (Homo sapiens, UniProt P02768); test: Protein binding in human serum albumin by HPLC analysis; format: ADME, cell-free; conditions: read-out: PB (converted)
[21] = Terminal half life in rat at 0.4 mg/kg, iv; format: ADME, organism-based; conditions: in vivo, read-out: beta t1/2 (converted)
[22] = Toxicity in Wistar Han rat assessed as morphological changes in adrenal gland at 30 mg/kg/day, po administered QD for 7 days by microscopic analysis; format: organism-based; conditions: in vivo, 168 h, time 7 day
[23] = Cmax in Wistar Han rat at 30 mg/kg/day, po QD for 7 days; format: ADME, organism-based; design: time 7 day, dose 30 mg/kg/day, route po; conditions: in vivo
[24] = Free AUC (0 to last) in mdx mouse administered orally 10 mins prior to unilateral eccentric contraction and QD for 43 days thereafter; format: ADME; conditions: in vivo, po, 1032 h, time 43 day
[25] = Inhibition of m-PGES (unknown origin); design: species or system Homo sapiens
[26] = Toxicity in dog assessed as diffuse degenration/regeneration and multifocal erosion/ulcreation in small intestine and oesophagus at 75 mg/kg/day, po QD for 4 days by microscopic analysis; format: organism-based, Canis lupus familiaris; conditions: in vivo, 96 h, time 4 day
[27] = molecular target: Mas-related G-protein coupled receptor member X2 (Homo sapiens) (UniProt Q96LB1); conditions: dose <= 10000.0 nM
Description: Inhibition of MRGPRX2 receptor (unknown origin) upto 10000 nM

[28] = molecular target: 3',5'-cyclic-AMP phosphodiesterase 4B (Homo sapiens) (UniProt Q07343); conditions: dose <= 10000.0 nM
Description: Inhibition of PDE4B (unknown origin) upto 10000 nM

[29] = molecular target: Substance-P receptor (Homo sapiens) (UniProt P25103); conditions: dose <= 10000.0 nM
Description: Inhibition of tachykinin NK1 receptor (unknown origin) upto 10000 nM

[30] = molecular target: Potassium voltage-gated channel subfamily KQT member 1 (Homo sapiens, UniProt P51787); test: Inhibition of Kv7.1 channel (unknown origin) upto 10000 nM; conditions: 10 µM
[31] = Toxicity in dog assessed as organ morphological changes upto 30 mg/kg/day, po QD for 4 days by microscopic analysis; format: organism-based, Canis lupus familiaris; conditions: in vivo, 96 h, time 4 day
[32] = molecular target: Mu-type opioid receptor (Homo sapiens) (UniProt P35372); conditions: dose <= 10000.0 nM
Description: Inhibition of mu opioid receptor (unknown origin) upto 10000 nM

[33] = Free Cmax in eccentric contraction-induced muscle injury C57BL/6N mouse model administered orally 10 mins prior to unilateral eccentric contraction and QD for 16 days thereafter; format: ADME; conditions: in vivo, po, 384 h, time 16 day
[34] = molecular target: Alpha-1B adrenergic receptor (Homo sapiens) (UniProt P35368); conditions: dose <= 10000.0 nM
Description: Inhibition of alpha1B adrenergic receptor (unknown origin) upto 10000 nM

[35] = Toxicity in dog assessed as deterioration in clinical condition at 75 mg/kg/day, po QD for 4 days; format: organism-based, Canis lupus familiaris; conditions: in vivo, 96 h, time 4 day
[36] = Toxicity in Wistar Han rat assessed as animal death at 100 mg/kg/day, po administered QD for 7 days; format: organism-based; conditions: in vivo, 168 h, time 7 day
[37] = Oral bioavailability in rat at 2.4 mg/kg; format: ADME, organism-based; conditions: in vivo
[38] = Clearance in rat at 0.4 mg/kg, iv; format: ADME, organism-based; conditions: in vivo
[39] = Toxicity in dog assessed as body weight loss at 75 mg/kg/day, po QD for 4 days; format: organism-based, Canis lupus familiaris; conditions: in vivo, 96 h, time 4 day

3',5'-cyclic-AMP phosphodiesterase 4B (Homo sapiens), sequence (Q07343 whole entry): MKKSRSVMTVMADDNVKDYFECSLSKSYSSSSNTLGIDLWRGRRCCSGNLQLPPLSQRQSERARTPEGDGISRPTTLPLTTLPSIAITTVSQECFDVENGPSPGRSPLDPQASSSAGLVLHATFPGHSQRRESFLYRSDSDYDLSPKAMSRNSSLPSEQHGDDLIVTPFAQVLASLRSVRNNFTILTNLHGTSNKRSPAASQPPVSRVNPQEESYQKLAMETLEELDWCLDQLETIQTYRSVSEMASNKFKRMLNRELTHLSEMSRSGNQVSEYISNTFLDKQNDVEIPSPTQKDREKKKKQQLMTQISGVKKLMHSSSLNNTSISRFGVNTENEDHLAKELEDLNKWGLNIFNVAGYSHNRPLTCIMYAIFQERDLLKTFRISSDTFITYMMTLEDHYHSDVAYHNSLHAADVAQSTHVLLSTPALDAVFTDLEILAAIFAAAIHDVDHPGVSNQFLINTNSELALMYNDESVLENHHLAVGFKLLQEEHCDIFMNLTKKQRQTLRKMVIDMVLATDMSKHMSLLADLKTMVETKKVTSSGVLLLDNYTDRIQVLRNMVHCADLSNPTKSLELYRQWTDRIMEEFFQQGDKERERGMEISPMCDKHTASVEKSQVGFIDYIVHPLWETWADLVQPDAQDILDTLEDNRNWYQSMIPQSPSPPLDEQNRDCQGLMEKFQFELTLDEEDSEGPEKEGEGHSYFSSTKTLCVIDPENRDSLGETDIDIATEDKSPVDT
Potassium voltage-gated channel subfamily KQT member 1, sequence (P51787 whole entry): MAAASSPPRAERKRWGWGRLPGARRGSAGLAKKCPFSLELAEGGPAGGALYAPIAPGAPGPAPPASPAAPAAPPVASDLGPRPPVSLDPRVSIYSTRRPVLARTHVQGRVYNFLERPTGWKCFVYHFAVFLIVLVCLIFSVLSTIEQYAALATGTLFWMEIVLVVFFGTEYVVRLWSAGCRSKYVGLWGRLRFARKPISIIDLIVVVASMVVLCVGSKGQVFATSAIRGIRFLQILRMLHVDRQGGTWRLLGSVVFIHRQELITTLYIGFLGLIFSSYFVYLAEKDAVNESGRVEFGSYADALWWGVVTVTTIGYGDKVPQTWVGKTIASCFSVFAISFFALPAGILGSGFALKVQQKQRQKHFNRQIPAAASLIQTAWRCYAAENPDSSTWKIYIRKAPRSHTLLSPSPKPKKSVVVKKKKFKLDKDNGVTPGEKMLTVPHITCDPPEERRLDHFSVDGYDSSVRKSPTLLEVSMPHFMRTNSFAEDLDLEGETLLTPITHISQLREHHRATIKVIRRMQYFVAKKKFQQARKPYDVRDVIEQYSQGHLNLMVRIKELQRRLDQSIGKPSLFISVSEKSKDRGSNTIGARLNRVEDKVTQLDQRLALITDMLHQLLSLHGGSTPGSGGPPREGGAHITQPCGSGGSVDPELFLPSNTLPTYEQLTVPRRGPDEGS
Bile salt export pump, sequence (O95342 whole entry): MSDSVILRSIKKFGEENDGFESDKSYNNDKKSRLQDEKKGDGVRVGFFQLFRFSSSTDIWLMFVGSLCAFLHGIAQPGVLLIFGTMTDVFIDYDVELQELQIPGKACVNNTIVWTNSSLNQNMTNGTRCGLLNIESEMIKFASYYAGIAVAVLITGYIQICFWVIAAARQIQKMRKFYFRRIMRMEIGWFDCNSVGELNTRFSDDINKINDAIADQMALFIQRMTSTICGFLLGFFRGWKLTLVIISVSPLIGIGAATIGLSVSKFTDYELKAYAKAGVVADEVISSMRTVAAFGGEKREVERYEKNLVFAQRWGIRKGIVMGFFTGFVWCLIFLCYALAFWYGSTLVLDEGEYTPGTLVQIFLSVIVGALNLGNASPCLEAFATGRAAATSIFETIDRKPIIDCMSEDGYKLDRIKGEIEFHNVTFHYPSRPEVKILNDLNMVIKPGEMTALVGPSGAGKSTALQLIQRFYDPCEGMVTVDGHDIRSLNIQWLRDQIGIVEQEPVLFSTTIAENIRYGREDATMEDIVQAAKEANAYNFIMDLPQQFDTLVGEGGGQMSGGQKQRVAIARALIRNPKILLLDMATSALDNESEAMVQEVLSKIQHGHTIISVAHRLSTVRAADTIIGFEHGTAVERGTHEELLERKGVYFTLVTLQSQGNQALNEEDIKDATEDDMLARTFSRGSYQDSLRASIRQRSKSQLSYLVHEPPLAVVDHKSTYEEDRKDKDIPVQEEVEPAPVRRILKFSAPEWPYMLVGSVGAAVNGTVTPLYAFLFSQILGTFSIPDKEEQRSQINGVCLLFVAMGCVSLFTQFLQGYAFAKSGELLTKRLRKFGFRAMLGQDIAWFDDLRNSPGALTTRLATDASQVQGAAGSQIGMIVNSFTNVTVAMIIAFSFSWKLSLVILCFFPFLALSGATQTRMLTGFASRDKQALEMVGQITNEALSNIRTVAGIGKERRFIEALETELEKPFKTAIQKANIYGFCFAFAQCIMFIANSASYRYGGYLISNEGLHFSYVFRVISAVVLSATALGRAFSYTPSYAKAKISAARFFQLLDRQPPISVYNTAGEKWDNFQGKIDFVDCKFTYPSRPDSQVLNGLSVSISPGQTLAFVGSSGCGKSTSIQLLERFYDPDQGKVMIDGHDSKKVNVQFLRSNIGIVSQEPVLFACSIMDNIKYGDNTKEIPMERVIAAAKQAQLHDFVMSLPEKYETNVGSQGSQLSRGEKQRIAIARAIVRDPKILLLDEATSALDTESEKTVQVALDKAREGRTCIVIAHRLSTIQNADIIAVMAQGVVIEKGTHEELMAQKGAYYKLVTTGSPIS
Mu-type opioid receptor (Homo sapiens), sequence (P35372 whole entry): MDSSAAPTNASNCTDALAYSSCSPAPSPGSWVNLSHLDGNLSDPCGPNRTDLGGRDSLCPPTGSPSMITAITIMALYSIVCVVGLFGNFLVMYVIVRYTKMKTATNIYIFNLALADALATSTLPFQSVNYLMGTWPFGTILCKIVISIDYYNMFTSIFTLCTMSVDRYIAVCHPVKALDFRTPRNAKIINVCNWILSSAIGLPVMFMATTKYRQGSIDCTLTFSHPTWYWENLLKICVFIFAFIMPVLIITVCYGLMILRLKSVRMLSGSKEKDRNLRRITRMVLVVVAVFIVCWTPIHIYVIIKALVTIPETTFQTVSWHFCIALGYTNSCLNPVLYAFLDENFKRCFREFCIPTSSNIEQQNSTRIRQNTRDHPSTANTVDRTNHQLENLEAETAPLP
Substance-P receptor (Homo sapiens), sequence (P25103 whole entry): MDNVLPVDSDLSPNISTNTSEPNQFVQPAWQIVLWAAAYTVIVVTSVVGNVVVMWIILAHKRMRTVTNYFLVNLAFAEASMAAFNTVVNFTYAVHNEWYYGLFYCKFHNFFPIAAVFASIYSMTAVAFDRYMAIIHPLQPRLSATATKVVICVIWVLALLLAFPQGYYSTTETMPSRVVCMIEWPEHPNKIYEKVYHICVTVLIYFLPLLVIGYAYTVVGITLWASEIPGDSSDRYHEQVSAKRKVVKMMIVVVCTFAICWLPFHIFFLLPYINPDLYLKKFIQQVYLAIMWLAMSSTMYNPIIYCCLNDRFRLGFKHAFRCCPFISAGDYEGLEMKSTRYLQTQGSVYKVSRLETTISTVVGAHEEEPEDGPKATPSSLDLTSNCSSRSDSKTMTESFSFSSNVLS
Alpha-1B adrenergic receptor (Homo sapiens), sequence (P35368 whole entry): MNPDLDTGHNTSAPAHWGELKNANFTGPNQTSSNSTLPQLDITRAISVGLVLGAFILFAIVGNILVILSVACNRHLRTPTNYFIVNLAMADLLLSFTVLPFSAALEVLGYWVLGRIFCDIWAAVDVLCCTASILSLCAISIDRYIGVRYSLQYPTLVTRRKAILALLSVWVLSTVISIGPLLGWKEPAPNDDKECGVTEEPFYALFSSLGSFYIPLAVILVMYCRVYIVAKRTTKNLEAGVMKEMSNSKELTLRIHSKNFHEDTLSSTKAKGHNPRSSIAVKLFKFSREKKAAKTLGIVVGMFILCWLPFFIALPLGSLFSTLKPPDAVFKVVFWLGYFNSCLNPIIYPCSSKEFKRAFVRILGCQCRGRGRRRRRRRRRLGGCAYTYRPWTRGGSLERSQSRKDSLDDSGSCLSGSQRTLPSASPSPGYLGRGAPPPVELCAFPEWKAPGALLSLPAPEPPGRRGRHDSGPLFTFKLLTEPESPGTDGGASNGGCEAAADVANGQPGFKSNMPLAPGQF
Acetylcholinesterase (Homo sapiens), sequence (P22303 whole entry): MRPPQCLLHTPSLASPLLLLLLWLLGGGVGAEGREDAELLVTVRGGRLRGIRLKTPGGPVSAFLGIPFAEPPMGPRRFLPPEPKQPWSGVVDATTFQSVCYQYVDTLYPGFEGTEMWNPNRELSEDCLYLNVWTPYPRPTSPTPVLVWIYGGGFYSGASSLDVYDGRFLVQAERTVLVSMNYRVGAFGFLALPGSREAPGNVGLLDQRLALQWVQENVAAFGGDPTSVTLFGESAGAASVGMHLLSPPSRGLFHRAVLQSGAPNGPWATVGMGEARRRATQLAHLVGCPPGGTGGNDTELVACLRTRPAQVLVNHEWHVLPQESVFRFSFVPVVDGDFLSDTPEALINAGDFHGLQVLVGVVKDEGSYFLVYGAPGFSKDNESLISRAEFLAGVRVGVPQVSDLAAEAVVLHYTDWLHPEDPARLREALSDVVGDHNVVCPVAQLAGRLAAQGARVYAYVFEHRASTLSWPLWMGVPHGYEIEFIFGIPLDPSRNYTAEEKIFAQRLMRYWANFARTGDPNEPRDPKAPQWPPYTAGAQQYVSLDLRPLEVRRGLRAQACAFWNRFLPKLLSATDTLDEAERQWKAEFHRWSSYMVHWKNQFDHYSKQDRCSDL
Mas-related G-protein coupled receptor member X2 (Homo sapiens), sequence (Q96LB1 whole entry): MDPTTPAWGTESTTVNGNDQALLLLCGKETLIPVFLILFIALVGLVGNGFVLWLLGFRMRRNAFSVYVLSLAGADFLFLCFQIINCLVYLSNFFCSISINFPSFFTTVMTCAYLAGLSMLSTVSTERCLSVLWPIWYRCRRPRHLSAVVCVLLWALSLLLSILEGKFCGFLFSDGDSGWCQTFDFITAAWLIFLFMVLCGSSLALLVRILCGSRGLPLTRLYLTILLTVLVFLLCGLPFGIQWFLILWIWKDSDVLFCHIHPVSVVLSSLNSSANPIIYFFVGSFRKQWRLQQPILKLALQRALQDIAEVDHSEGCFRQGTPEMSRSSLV

SMILES: CC(C)(O)[C@H]1CC[C@H](NC(=O)c2cnc3nc(C4CC4)ccc3c2)CC1
- Activity [1]: Non-Toxic
- Activity [2]: Toxic
- Activity [3]: Toxic
- Activity [4]: Non-Toxic
- Kp at 384 h [5]: 0.56
- AUC at 168 h [6]: 120 µg·h/mL
- Activity [7]: 90%
- EC50 [8]: 42 nM
- ED50 [9]: 0.0031 mg/kg
- Activity [10]: Non-Toxic
- inhibition (INH) [11]: Not Active
- Activity [12]: Toxic
- Activity [13]: Toxic
- ED50 [14]: 1.1 mg/kg
- inhibition [15]: inactive
- EC50 [16]: 1.4 ng/g
- Activity [17]: Toxic
- inhibition [18]: inactive
- inhibition [19]: inactive
- fraction unbound [20]: 0.2
- half-life [21]: 5.1 h
- Activity [22]: Non-Toxic
- Cmax [23]: 24000 ng/mL
- fAUClast [24]: 0.2 µg·h/mL
- IC50 [25]: > 100000 nM
- Activity [26]: Toxic
- inhibition [27]: inactive
- inhibition [28]: inactive
- inhibition [29]: inactive
- inhibition (INH) [30]: Not Active
- Activity [31]: Non-Toxic
- inhibition [32]: inactive
- fCmax [33]: 370 ng/mL
- inhibition [34]: inactive
- Activity [35]: Toxic
- Activity [36]: Toxic
- bioavailability [37]: 100%
- clearance [38]: 4.5 mL/min/kg
- Activity [39]: Toxic

Source: ChEMBL document CHEMBL5260850, “The exploration of aza-quinolines as hematopoietic prostaglandin D synthase (H-PGDS) inhibitors with low brain exposure” (Bioorg Med Chem, 2020)
